Measurements as given in US20060100175A1, “Novel therapeutic use of low molecular weight heparins” (Aventis Pharma S.A., priority 1998, published 2006).

Tested on: motoneurons plated on astrocyte monolayers
Assay: Potentiation effect on the stimulation of the trophic motoneuron activity (SIN-1 treated astrocyte monolayers)
Assay type: cell-based, rat
Conditions: SIN-1 2 mM, 1 hour on astrocyte monolayers
Description: The cultures enriched in motoneurons are prepared using the centrifugation method described by R. L. Schnaar and A. E. Schaffner, J. Neurosci., 1, 204-217 (1981) and modified by W. Camu and C. E. Henderson, J. Neurosci. Methods, 44, 59-70 (1992). Spinal cords from E15 rat embryos are dissected sterilely and the spinal notochords are removed. They are then cut up and incubated for 15 minutes at 37° C. in PBS (phosphate buffered saline: 137 mM NaCl, 2.68 mM KCl, 6.45 mM Na2HPO4, 1.47 mM KH2PO4) to which 0.05% of trypsin has been added. The dissociation of the cells is completed by trituration with the end of a 1 ml pipette in the culture medium supplemented with bovine serum albumin (BSA) and with DNAase. The cell suspension is spread onto a band of 6.5% weight/volume metrizamide in L15 medium (sold by Gibco BRL) and centrifuged at 500 g for 15 minutes. The band of the interface containing the motoneurons is recovered. […]
The number of motoneurons is evaluated by counting labeled cells in a surface area of 1.44 cm^2 under a microscope giving a 200-fold magnification. The values are expressed as a number of motoneurons per cm^2 or a percentage of the number of motoneurons present in the cultures maintained with trophic factors (BDNF/NT5 […]). […]

[NH-]c1c[n+](N2CCOCC2)no1 [SIN-1]
Number of motoneurons % with respect to the control: 125%
